Experimental data reported in ChEMBL document CHEMBL1149841, “Synaptosides A and A1, triterpene glycosides from the sea cucumber Synapta maculata containing 3-O-methylglucuronic acid and their cytotoxic activity against tumor cells” (J Nat Prod, 2008).
Active and inactive are the calls of the source. The rule behind the calls is not given here.

Tests used:
HeLa [1] = experiment: Cytotoxicity against human HeLa cells after 12 hrs at 14.1 ug/ml by MTS reduction assay; type: functional, cell-based
HeLa [2] = experiment: Cytotoxicity against human HeLa cells after 12 hrs by MTS reduction assay; type: functional, cell-based

CO[C@@H]1[C@@H](O)[C@H](O[C@@H]2[C@@H](O)[C@H](O[C@H]3[C@H](O)[C@@H](O)[C@H](O[C@H]4[C@H](O[C@H]5CC[C@]6(C)C7=C(C(=O)C[C@H]6C5(C)C)[C@]5(C)CC[C@H]6[C@]5(CC7)C(=O)O[C@@]6(C)CC(=O)CC(C)C)OC[C@@H](O[C@@H]5O[C@H](COS(=O)(=O)O)[C@@H](O)[C@H](O)[C@H]5O)[C@@H]4O)O[C@@H]3C)O[C@H](CO)[C@H]2O)O[C@H](C(=O)O)[C@H]1O
Activity (HeLa [1]): inactive

CO[C@@H]1[C@@H](O)[C@H](O[C@@H]2[C@@H](O)[C@H](O[C@H]3[C@H](O)[C@@H](O)[C@H](O[C@H]4[C@H](O[C@H]5CC[C@]6(C)[C@@H]7CC[C@]89C(=O)O[C@@](C)(CC(=O)CC(C)C)[C@H]8CC[C@@]9(C)C7=CC[C@H]6C5(C)C)OC[C@@H](O[C@@H]5O[C@H](COS(=O)(=O)[O-])[C@@H](O)[C@H](O)[C@H]5O)[C@@H]4O)O[C@@H]3C)O[C@H](CO)[C@H]2O)O[C@H](C(=O)[O-])[C@H]1O.[Na+].[Na+] [SYNAPTOSIDE A]
IC50 (HeLa [2]): 8.6 µg/mL
